According to patent US20090099064A1, “Derivatized insulin oligomers” (Diabecore Medical Inc.,, priority 2006, published 2009):
Where two headings read alike, the source gives them in different places.

What was measured:
[1] = phase 3 clinical trials; cited from earlier work
[2] = test system: diabetic beagle dogs; test: Subcutaneous injection into diabetic dogs, glucose suppression; format: in vivo; conditions: compared with unmodified insulin
Protocol: FIG. 4. Subcutaneous injection of human insulin and P-insulin oligomers into diabetic beagle dogs.
The formulation of example 3 containing P-insulin oligomers of sequence ID NO.2 and with 3:1 M:M protamine/insulin or unmodified insulin were injected subcutaneously into diabetic dogs.

[3] = test system: L6 rat myocytes; test: 2-deoxyglucose uptake in L6 rat myocyte cell cultures; format: cell-based; conditions: 60 min incubation
Protocol: FIG. 5. Dose response curve of human & porcine & P-insulin oligomers in L6 rat myocytes. Cells were incubated for 60 min. in the various concentrations of each insulin in separate experiments. 2-deoxyglucose uptake was then measured.
P-insulin oligomers of sequence ID NO. 1 were tested in L6 rat myocyte cell cultures for their ability to cause glucose uptake.

[4] = test system: pancreatectomized diabetic beagle dogs; conditions: dog, in vivo, iv
[5] = test system: pancreatectomized diabetic beagle dogs; test: Intravenous injection into pancreatectomized diabetic dogs, blood glucose
[6] = U.S. Pat. No. 5,453,417 & PCT/CA92/00082; cited from earlier work
[7] = test system: Sprague-Dawley rats; test: Pulmonary (intratracheal) administration to Sprague-Dawley rats, whole blood glucose; format: in vivo
Protocol: FIG. 6. Glucose response of Sprague-Dawley rats to […] of phosphorylated insulin hexamer. Rats were injected at Oh and glucose levels measured for 12 h. As shown, glucose levels dropped by 2 h post-dosing and remained suppressed out to 11 h post-dose, after which they returned to baseline or pre-dose levels.
Via the pulmonary route, six Sprague-Dawley rats (BW 250-360 g.) were administered 4 mg of phosphorylated insulin oligomer (in the form of hexamer). The animals were dosed by intratracheal administration using a PennCentury intratracheal Aerosolizer (Microsprayer). The dose volume was 100 μL/animal. The dose concentration for the study was prepared by dilution of 30 mg/mL phosphorylated insulin hexamer in isotonic phosphate buffered normal saline, pH 7.4.
An Antisedan cocktail consisting of atipamezole hydrochloride (1 mg/mL, 1 mg/kg) and saline was administered by subcutaneous injection at a dose volume of 1 mL/kg, following completion of the dosing process. A series of 13 blood samples (approximately 0.1 mL/sample) were collected from each animal at 1, 2, 3, 4, 5, 6, 7, 8, 9, 10, 11 and 12 hours post-dose. For this purpose, each rat (unanesthetized) was bled by jugular/tail vein venipuncture (or other site as deemed necessary) and the sample used for measuring whole blood glucose levels using the Accu Soft Advantage™ (glucometer) method. […]

[8] = IV injection, pancreatectomized diabetic dogs

In the case of Detemir, the “fasting blood glucose (FBG) achieved” value [1] is listed as 145 mg %.

In the case of Lantus, the “fasting blood glucose (FBG) achieved” value [1] is listed as 145 mg %.

For “P-insulin oligomers: phosphorylated insulin oligomers comprising sequence ID NOs. 1 and 2; FIG. 3 and 5 use ID NO. 1, FIG. 4 uses ID NO. 2”, the “glucose suppression / duration of action” value [2] was “extended duration of action”, the “dose response of 2-deoxyglucose uptake” value ([3]; entire dose range) was “flattened dose response at all concentrations investigated” and the “maximal stimulation of deoxy-glucose uptake” value ([3]; relative to human (and porcine) insulin) was “markedly lower than that for porcine or human insulin”. The “dose at which hypoglycemia was observed” value [4] was 8 times the basal or "glucose ma, the “serum half-life / duration of action (in words)” value [4] was “extended duration of action (long serum half-life)” and the “course of blood glucose after injection” value [5, 8] was “maintenance of normal glucose without hyperglycemia at all doses”.

In the case of human insulin, the “serum half-life / duration of action (in words)” value ([5]; IV injection, pancreatectomized diabetic beagle dogs) is reported as “short serum half-life”, the “course of blood glucose after injection” value [5, 8] is reported as “rapid decline in blood glucose” and the hypoglycemia [5, 8] is reported as “pronounced hypoglycemia”. For the same substance, the duration of action ([5]; given IV, pancreatectomized diabetic dogs) was 20 min.

In the case of “monomeric phosphorylated insulin: monomeric phosphorylated insulin of the Lougheed patents U.S. Pat. No. 5,453,417 & PCT/CA92/00082”, the “flattening of insulin's dose response” value [6] is given as 3-4 fold.

For “phosphorylated insulin hexamer: phosphorylated insulin oligomer in the form of hexamer, in isotonic phosphate buffered normal saline, pH 7.4”, the “time at which glucose returned to pre-dose levels” value ([7]; 4 mg) was ≤ 12 h and the “time for which blood glucose remained below baseline post-dosing” value ([7]; 4 mg (FIG. 6 legend says 40 mg)) was 11 h.
